These results are taken from patent publication US6689783B2, “Aryl oxime-piperazines useful as CCR5 antagonists” (priority 2001, dated 2004).

Data set [1] relates to U87 cells stably expressing CD4 and the chemokine receptor CCR5. Kind of data set: HIV-1 entry assay (luciferase reporter virions). Format: cell-based. Conditions: Human immunodeficiency virus 1, U87/CD4/CCR5, read-out: Viral Entry IC50. The protocol: Several types of assays can be used to determine the CCR5 inhibitory and antagonistic activity of the compounds of the invention. Some are, for example, the CCR5 Membrane Binding Assay, the HIV-1 Entry Assay, HIV-1 Replication Assay, the Calcium Flux Assay, the GTPγS Binding Assay (secondary membrane binding assay) and the Chemotaxis Assay. Compounds of this invention were evaluated for their ability to inhibit CCR5 receptor mediated viral entry using an HIV-1 entry assay, which is described below:
Replication defective HIV-1 reporter virions are generated by cotransfection of a plasmid encoding the NL4-3 strain of HIV-1 (which has been modified by mutation of the envelope gene and introduction of a luciferase reporter plasmid) along with a plasmid encoding one of several HIV-1 envelope genes as described by Connor et al, Virology, 206 (1995), 935-944. Following transfection of the two plasmids by calcium phosphate precipitation, the viral supernatants are harvested on day 3 and a functional viral titer determined. These stocks are then used to infect U87 cells stably expressing CD4 and the chemokine receptor CCR5 which have been preincubated with or without test compound. Infections are carried out for 2 hours at 37° C., the cells washed and media replaced with fresh media containing compound. The cells are incubated for 3 days, lysed and luciferase activity determined. […]

The structures appear in SMILES notation. Structures can show the parent of a compound that is named as a salt.

Usually IC50 stands for the concentration that inhibits the measured activity by half. The term melting point denotes the temperature of the solid-liquid transition.

Turning to `CCON=C(c1ccc(C(F)(F)F)cc1)N1CCN(C2(C)CCN(C(=O)c3c(C)ncnc3C)CC2)C[C@@H]1C` [Ih, 1-[(4,6-dimethyl-5-pyrimidinyl)carbonyl]-4-[4-[(ethoxyimino)[4-(trifluoromethyl)phenyl]methyl]-3(s)-methyl-1-piperazinyl]-4-methylpiperidine], in data set [1], the IC50 was 16.5 nM.

The compound `CCON=C(c1ccc(OC(F)(F)F)cc1)N1CCN(C2(C)CCN(C(=O)c3c(C)ncnc3C)CC2)C[C@@H]1C` (as salt: HCl) yielded a melting point of 165 to 169 °C.
